Measured values reported in US9757375B2, “Compounds that inhibit human DNA ligases and methods of treating cancer” (University of Maryland, Baltimore, priority 2007, dated 2017).
Entries after “also recorded” stand apart in the source; their conditions may differ. Where two headings read alike, the source gives them in different places.

Key:
T4 DNA ligase = target: T1, T4 DNA ligase (Enterobacteria phage T4, UniProt P00970); assay: High-throughput fluorescence-based DNA joining assay, non-specific inhibitor control; format: biochemical, bacteriophage T4; conditions: for inhibition of T4 DNA ligase, in words: in vitro screen, 100 μmol/L
T1 construct: purchased NEB
T1 sequence (P00970 1-487): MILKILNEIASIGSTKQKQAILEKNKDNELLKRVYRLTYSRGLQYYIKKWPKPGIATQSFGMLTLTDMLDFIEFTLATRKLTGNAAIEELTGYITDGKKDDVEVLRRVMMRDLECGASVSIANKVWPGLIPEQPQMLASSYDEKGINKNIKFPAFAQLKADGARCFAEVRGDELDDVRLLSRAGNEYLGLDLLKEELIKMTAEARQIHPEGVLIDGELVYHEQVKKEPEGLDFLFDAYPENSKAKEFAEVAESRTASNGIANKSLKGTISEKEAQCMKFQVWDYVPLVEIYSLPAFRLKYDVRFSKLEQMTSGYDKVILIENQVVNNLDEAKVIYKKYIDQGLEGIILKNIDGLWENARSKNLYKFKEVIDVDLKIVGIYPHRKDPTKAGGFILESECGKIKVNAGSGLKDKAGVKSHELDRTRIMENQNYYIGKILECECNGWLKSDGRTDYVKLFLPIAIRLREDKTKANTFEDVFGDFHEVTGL
Procedure, shortened: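 This counter-screen used a FRET-based DNA joining assay. Duplicate reactions held 10 pmol nicked DNA substrate and 10 units T4 DNA ligase, with or without 100 μmol/L compound. T4 ligase lacks the DNA-binding domain targeted in silico, so compounds inhibiting it were flagged as non-specific, likely DNA-binding.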

hLigI = target: T2, hLigI (Homo sapiens, UniProt P18858); assay: High-throughput fluorescence-based DNA joining (ligation) assay; format: biochemical; conditions: for inhibition of hLigI (DNA ligase I), in words: in vitro screen, 100 μmol/L, the 15 hLigI inhibitors inhibited by >50%
T2 construct: made in house
T2 sequence (P18858 whole entry): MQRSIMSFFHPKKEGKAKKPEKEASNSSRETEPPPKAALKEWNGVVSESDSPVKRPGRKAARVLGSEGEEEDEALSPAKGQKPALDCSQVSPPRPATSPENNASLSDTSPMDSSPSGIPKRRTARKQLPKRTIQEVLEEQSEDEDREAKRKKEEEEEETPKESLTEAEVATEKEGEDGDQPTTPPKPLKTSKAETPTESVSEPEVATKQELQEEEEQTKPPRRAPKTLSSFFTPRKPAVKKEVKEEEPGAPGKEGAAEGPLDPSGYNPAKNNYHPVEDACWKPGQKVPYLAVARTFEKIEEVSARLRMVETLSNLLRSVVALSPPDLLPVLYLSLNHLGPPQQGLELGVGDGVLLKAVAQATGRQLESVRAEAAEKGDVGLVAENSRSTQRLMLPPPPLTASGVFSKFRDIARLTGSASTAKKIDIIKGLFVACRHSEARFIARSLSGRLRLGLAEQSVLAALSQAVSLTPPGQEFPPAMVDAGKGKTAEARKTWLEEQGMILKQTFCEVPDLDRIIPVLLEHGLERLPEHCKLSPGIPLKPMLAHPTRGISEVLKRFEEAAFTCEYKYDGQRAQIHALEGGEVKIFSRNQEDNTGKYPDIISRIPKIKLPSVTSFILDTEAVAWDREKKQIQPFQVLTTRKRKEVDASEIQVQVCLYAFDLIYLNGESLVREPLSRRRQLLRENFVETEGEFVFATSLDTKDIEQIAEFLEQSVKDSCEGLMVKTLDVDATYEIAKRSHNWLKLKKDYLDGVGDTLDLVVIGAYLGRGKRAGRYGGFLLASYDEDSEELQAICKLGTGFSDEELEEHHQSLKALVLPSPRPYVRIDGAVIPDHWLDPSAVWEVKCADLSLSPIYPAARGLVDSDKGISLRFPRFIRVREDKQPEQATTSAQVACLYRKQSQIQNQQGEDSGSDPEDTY
Procedure, shortened: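 Nicked DNA substrate (10 pmol) was incubated with 0.25 pmol hLigI, with or without 100 μmol/L test compound, in duplicate. Afterwards the DNA was denatured and renatured with a 20-fold excess of unmodified oligonucleotide. Ligation forms an AF488/BHQ1 hairpin, read as reduced fluorescence at 518 nm.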

human DNA ligase III = target: T3, human DNA ligase III (Homo sapiens, UniProt P49916); assay: as above; format: biochemical; conditions: for inhibition of human DNA ligase III, in words: in vitro screen
T3 sequence (P49916 1-862 isoform P49916-4): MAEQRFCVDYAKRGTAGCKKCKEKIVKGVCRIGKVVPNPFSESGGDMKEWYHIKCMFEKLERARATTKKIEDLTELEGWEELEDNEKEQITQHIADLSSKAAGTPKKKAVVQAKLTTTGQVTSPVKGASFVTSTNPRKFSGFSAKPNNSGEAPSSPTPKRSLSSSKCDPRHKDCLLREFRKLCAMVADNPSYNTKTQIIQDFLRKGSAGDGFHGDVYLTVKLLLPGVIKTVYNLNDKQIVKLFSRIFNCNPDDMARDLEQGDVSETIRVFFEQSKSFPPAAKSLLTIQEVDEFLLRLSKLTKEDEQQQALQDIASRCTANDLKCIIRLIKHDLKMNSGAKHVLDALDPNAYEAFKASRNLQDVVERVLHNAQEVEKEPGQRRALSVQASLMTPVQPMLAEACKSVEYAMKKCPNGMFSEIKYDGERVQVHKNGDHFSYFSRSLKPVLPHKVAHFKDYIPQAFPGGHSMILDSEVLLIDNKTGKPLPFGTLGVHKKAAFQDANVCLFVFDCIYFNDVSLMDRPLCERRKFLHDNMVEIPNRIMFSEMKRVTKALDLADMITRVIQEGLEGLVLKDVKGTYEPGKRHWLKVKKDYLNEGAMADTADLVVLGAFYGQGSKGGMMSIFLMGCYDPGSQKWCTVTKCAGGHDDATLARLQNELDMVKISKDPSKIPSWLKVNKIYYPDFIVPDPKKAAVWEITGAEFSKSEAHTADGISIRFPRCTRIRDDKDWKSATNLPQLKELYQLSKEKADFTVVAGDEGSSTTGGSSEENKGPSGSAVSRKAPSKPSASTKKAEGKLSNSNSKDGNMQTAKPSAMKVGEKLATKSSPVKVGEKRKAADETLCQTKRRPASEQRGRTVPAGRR
Procedure, shortened: (§1)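 Ligation joins an AF488-labelled and a BHQ1-labelled oligonucleotide. After denaturation and renaturation with a 20-fold excess of unlabelled competitor strand, the product forms a quenched hairpin, so joining is read as loss of 518 nm fluorescence. Ligase III used a nicked duplex; ligase IV used two duplexes with short complementary single-strand ends.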

human DNA ligase IV = human DNA ligase IV (Homo sapiens, UniProt P49917); assay: as above; format: biochemical; conditions: for inhibition of human DNA ligase IV, in words: in vitro screen
Chain of human DNA ligase IV (P49917 whole entry): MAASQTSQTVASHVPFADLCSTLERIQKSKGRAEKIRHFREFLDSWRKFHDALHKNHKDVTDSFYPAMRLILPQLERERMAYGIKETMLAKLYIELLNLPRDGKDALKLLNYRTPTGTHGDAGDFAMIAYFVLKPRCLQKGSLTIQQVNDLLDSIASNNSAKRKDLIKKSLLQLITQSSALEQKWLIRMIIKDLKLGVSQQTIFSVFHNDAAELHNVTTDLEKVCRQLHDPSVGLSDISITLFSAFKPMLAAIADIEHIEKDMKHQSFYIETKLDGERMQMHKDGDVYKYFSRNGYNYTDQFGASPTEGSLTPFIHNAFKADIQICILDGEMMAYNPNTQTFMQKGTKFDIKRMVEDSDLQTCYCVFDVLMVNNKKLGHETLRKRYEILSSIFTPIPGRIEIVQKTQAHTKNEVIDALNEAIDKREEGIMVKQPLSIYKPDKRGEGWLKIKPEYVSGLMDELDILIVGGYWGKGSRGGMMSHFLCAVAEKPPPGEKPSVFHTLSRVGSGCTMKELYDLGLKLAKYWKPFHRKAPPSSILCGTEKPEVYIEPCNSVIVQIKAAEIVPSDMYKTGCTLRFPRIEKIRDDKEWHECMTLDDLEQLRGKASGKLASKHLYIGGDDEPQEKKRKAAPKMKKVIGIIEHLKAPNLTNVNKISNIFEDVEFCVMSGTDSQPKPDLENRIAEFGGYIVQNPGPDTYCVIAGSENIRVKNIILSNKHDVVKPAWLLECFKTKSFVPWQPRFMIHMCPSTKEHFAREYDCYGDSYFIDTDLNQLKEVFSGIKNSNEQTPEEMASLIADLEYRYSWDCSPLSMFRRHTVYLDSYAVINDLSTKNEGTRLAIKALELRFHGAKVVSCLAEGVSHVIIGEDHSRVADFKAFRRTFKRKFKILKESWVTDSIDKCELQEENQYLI
Chain of human DNA ligase IV (Q13426 whole entry partner): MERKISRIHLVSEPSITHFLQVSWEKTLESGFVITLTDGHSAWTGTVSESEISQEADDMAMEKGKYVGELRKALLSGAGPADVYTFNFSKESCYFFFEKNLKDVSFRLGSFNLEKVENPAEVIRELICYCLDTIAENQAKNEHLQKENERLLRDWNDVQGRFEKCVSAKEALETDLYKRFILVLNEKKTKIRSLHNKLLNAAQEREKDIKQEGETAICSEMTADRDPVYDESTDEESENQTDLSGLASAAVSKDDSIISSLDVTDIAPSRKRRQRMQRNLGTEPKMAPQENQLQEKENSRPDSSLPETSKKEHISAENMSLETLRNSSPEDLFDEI
Procedure, shortened: as §1

[1] = 100 μM, read-out: In vitro % inhib T4 100
[2] = read-out: % activity Inhibition LigT4 100 uM
[3] = 100 uM, read-out: % activity Inhibition hLigI 100 uM
[4] = 100 μM, read-out: In vitro % inhib hLigI 100
[5] = 100 μM, read-out: In vitro % inhib hLigIII 100
[6] = 100 uM, Ø not defined (0 in Table 5A), read-out: % activity Inhibition hLigIII 100 uM
[7] = 100 μM, read-out: In vitro % inhib hLigIV 100
[8] = 100 uM, Ø not defined (0 in Table 5A)
[9] = 100 μM, read-out: % of inhibition @ 100 μM (Helen's data) hLigI
[10] = read-out: % of inhibition @ 100 μM (Helen's data) hLigIII
[11] = 100 μM, read-out: % of inhibition @ 100 μM (Helen's data) hLigIV
[12] = 100 uM, Ø not defined (0 in Table 5A), read-out: % activity Inhibition hLigIV 100 uM

| SMILES | inhibition at 100 µM (T4 DNA ligase; [1]) | inhibition of T4 DNA ligase, in words (T4 DNA ligase) | inhibition at 100 µM (T4 DNA ligase; [2]) | inhibition at 100 µM (hLigI; [3]) | inhibition at 100 µM (hLigI; [4]) | inhibition of hLigI (DNA ligase I), in words (hLigI) | inhibition at 100 µM (human DNA ligase III; [5]) | inhibition at 100 µM (human DNA ligase III; [6]) | inhibition at 100 µM (human DNA ligase IV; [7]) | % activity Inhibition hLigIV 100 uM (human DNA ligase IV; [8]) | inhibition of human DNA ligase IV, in words (human DNA ligase IV) | inhibition at 100 µM (hLigI; [9]) | inhibition of human DNA ligase III, in words (human DNA ligase III) | inhibition at 100 µM (human DNA ligase III; [10]) | inhibition at 100 µM (human DNA ligase IV; [11]) | inhibition at 100 µM (human DNA ligase IV; [12]) | % activity Inhibition hLigIII 100 uM (human DNA ligase III; [8]) | inhibition at 100 µM (hLigI; read-out: % of inhibition @ 100 μM (Helen's data) hLigI) | inhibition at 100 µM (human DNA ligase IV; read-out: % of inhibition @ 100 μM (Helen's data) hLigIV) |
| --- | --- | --- | --- | --- | --- | --- | --- | --- | --- | --- | --- | --- | --- | --- | --- | --- | --- | --- | --- |
| O=c1[nH]ncc(N/N=C\c2ccc(O)c([N+](=O)[O-])c2)c1Cl [Compound 82] | 14 ± 11% | inhibit hLigI but not T4 DNA ligase | 13.9 ± 11.4% | 59.8 ± 1.7% | 60 ± 2% | inhibited hLigI; also recorded: inhibit hLigI but not T4 DNA ligase; also recorded: specific for DNA ligase I; also recorded: inhibit DNA ligase 1; also recorded: only inhibits DNA ligase I; also recorded: inhibits only hLigI | 29 ± 7% | 29.2 ± 7.3% | 0% | Ø | do not inhibit DNA ligase IV | – | – | – | – | – | – | – | – |
| O=C(O)CSc1cc(Cl)c2nonc2c1[N+](=O)[O-] [Compound 64] | 18 ± 8% | – | 18.4 ± 8.4% | 60.6 ± 0.54% | 61 ± 1% | inhibited hLigI; also recorded: inhibit all three human DNA ligases | 49 ± 1% | 48.5 ± 0.1% | 52 ± 1% | – | inhibit all three human DNA ligases | 61% | inhibit all three human DNA ligases | 49% | 52% | 51.9 ± 1.2% | – | – | – |
| O=C(Cn1cnc([N+](=O)[O-])n1)N/N=C/c1ccc(O)cc1O [Compound 151] | 0% | – | – | 25.9 ± 1.2% | 26 ± 1% | specific for DNA ligase I | 0% | – | 0% | Ø | – | 25% | – | < 20% | < 20% | – | Ø | – | – |
| Nc1nc(S)nc(O)c1/N=C/c1ccccc1 [Compound 189] | 3 ± 2% | inhibit hLigI but not T4 DNA ligase | 3.2 ± 1.9% | 68.8 ± 4.9% | 69 ± 5% | inhibited hLigI; also recorded: inhibit hLigI but not T4 DNA ligase; also recorded: inhibits all three human DNA ligases; also recorded: inhibit DNA ligase 1 | 53 ± 5% | 52.6 ± 4.8% | 41 ± 6% | – | inhibits all three human DNA ligases; also recorded: inhibits DNA ligase IV | – | inhibits all three human DNA ligases; also recorded: inhibits DNA ligase III | – | – | > 50% | – | – | – |
| Cc1c(Br)cc(NCC(=O)N/N=C\c2cc([N+](=O)[O-])ccc2O)cc1Br [Compound 67] | 0% | inhibit hLigI but not T4 DNA ligase | 0% | 78.3 ± 8.5% | 78 ± 8% | inhibited hLigI; also recorded: inhibit hLigI but not T4 DNA ligase; also recorded: specifically inhibit DNA ligases I and III; also recorded: inhibit DNA ligase 1; also recorded: inhibits both hLigI and hLigIII | 88 ± 12% | 88.2 ± 11.6% | 0% | Ø | do not inhibit DNA ligase IV | 78% | specifically inhibit DNA ligases I and III; also recorded: inhibits DNA ligase III; also recorded: inhibits both hLigI and hLigIII | 88% | < 20% | – | – | – | – |
| Cc1oc(C(=O)O)cc1CSCc1cc(C(=O)O)c(C)o1 [Compound 197] | 24 ± 6% | – | 24.4 ± 5.8% | 91 ± 6.9% | 91 ± 7% | inhibited hLigI; also recorded: inhibit all three human DNA ligases | 96 ± 4% | 96.5 ± 3.5% | 57 ± 3% | – | inhibit all three human DNA ligases | 91% | inhibit all three human DNA ligases | 97% | 57% | > 60% | – | – | – |
| C/C(O)=C1/C(=O)N(c2nc3ccccc3s2)N=C1c1ccccc1 [Compound 43] | 0% | – | 0% | 29.2 ± 3.5% | 29 ± 4% | specific for DNA ligase I | 0% | – | 0% | Ø | – | – | – | – | – | – | Ø | – | – |
| O=C1Nc2ccccc2Oc2cc([N+](=O)[O-])cc([N+](=O)[O-])c21 [Compound 180] | – | – | – | – | – | inhibited hLigI | – | – | – | – | – | – | – | > 40% | – | – | – | 58% | < 20% |
